# Reference: patent US11612681B2, “Compositions and devices for removal of endotoxins and cytokines from fluids” (priority 2017, dated 2023)
# How the values were obtained:
# [1] = format: binding, E. coli; settings: 40:1 mass ratio of PMB/LPS
# Procedure: (§1) Electrophoresis Assays. The binding capacities of the telodendrimers with LPS and/or BSA were studied and compared with PMB binding using electrophoresis assay. The electrophoresis was carried out in 1.5% agarose gel (tris-borate-EDTA (TBE) buffer) at constant current of 20 mA for 2 h. The gel was imaged by a Bio-Rad Universal Hood II Imager (Bio-Rad Laboratories, Inc.) under SYBR Green modes or photographed under UV illumination.
# as §1, with “assays.” for “Assays.”, “bovine serum albumin (BSA)” for “BSA”, “(Tris-borate-EDTA” for “(tris-borate-EDTA”
# [2] = Fluorescent polarization assay of FITC-LPS complexation; format: binding; settings: FITC-LPS 10 μg/mL in PBS
# Procedure: Fluorescent polarization assays. The fluorescence polarization (FP) was measured on the Multi-Mode Microplate Reader (Synergy™ 2, Biotek, VT) equipped with dichroic mirror (510 nm) and polarizing filter. The measurements were carried out on black flat bottom 96-well plates (Nunclon™ Surface, Roskilde, Denmark). The FP of LPS-FITC was record at excitation and emission filter of 485/20 nm and 528/20 nm, respectively. The experiments were performed in triplicate.
substance,measurement,setting,value
Polymyxin B [PMB],stability of LPS complex in electrophoresis,[1],unstable and dissociated
same,fluorescent polarization of FITC-LPS,[2],only slightly increased
